In PubChem BioAssay (NCI):
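Interpolation was linear, between the two tested concentrations surrounding the appropriate level; five concentrations were tested over 48 hours in 96-well plates. GI50 = concentration required for 50% inhibition of growth. At the TGI there is no net growth.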

What was measured:
Assay in all cases: growth of human tumour cells (NCI), 48 h
NCI-H226 lung = test system: NCI-H226 lung
KM12 colon = test system: KM12 colon
OVCAR-8 ovarian = test system: OVCAR-8 ovarian
SN12C renal = test system: SN12C renal
ACHN renal = test system: ACHN renal
HOP-92 NSCLC = test system: HOP-92 NSCLC
CAKI-1 renal = test system: CAKI-1 renal
RPMI-8226 leukemia = test system: RPMI-8226 leukemia
SF-539 CNS = test system: SF-539 CNS
SW-620 colon = test system: SW-620 colon
SK-OV-3 ovarian = test system: SK-OV-3 ovarian
RXF 393 renal = test system: RXF 393 renal
MDA-MB-435 = test system: MDA-MB-435
HL-60(TB) leukemia = test system: HL-60(TB) leukemia
IGROV1 ovarian = test system: IGROV1 ovarian
M14 melanoma = test system: M14 melanoma
UACC-257 melanoma = test system: UACC-257 melanoma
A498 renal = test system: A498 renal
MALME-3M melanoma = test system: MALME-3M melanoma
K-562 leukemia = test system: K-562 leukemia
MCF7 breast = test system: MCF7 breast
MOLT-4 leukemia = test system: MOLT-4 leukemia
EKVX NSCLC = test system: EKVX NSCLC
CCRF-CEM leukemia = test system: CCRF-CEM leukemia
NCI-H460 lung = test system: NCI-H460 lung
HOP-62 NSCLC = test system: HOP-62 NSCLC
DU-145 prostate = test system: DU-145 prostate
A549 NSCLC = test system: A549 NSCLC
PC-3 prostate = test system: PC-3 prostate
OVCAR-5 ovarian = test system: OVCAR-5 ovarian
COLO 205 colon = test system: COLO 205 colon
BT-549 breast = test system: BT-549 breast
SF-295 CNS = test system: SF-295 CNS
SK-MEL-28 melanoma = test system: SK-MEL-28 melanoma
786-0 renal = test system: 786-0 renal
HT29 colon = test system: HT29 colon
HCT-15 colon = test system: HCT-15 colon
NCI-H23 lung = test system: NCI-H23 lung
SK-MEL-5 melanoma = test system: SK-MEL-5 melanoma
SNB-19 CNS = test system: SNB-19 CNS
NCI-H522 lung = test system: NCI-H522 lung
SK-MEL-2 melanoma = test system: SK-MEL-2 melanoma
HCT-116 colon = test system: HCT-116 colon
U251 CNS = test system: U251 CNS
SF-268 CNS = test system: SF-268 CNS
HS 578T breast = test system: HS 578T breast
SR leukemia = test system: SR leukemia
UACC-62 melanoma = test system: UACC-62 melanoma
OVCAR-4 ovarian = test system: OVCAR-4 ovarian
TK-10 renal = test system: TK-10 renal
SNB-75 CNS = test system: SNB-75 CNS
HCC-2998 colon = test system: HCC-2998 colon
OVCAR-3 ovarian = test system: OVCAR-3 ovarian
UO-31 renal = test system: UO-31 renal
MDA-MB-231 breast = test system: MDA-MB-231 breast
NCI/ADR-RES ovarian = test system: NCI/ADR-RES ovarian

For `O=C(Nc1ccc(F)c(F)c1)c1cc(-c2ccc(F)cc2F)ccc1O`, the GI50 (NCI-H226 lung) was 1510 nM, the TGI (NCI-H226 lung) was 10100 nM and the GI50 (KM12 colon) was 1670 nM. For the same molecule, the TGI (KM12 colon) was 6650 nM, the GI50 (OVCAR-8 ovarian) was 1650 nM and the TGI (OVCAR-8 ovarian) was greater than 50000 nM. The GI50 (SN12C renal) was 1090 nM, the TGI (SN12C renal) was 4630 nM and the GI50 (ACHN renal) was 1460 nM. The TGI (ACHN renal) was 4550 nM, the GI50 (HOP-92 NSCLC) was 684 nM and the TGI (HOP-92 NSCLC) was 2640 nM. The GI50 (CAKI-1 renal) was 1100 nM, the TGI (CAKI-1 renal) was 3520 nM and the GI50 (RPMI-8226 leukemia) was 768 nM. The TGI (RPMI-8226 leukemia) was 2720 nM, the GI50 (SF-539 CNS) was 1730 nM and the TGI (SF-539 CNS) was greater than 50000 nM. For the same molecule, the GI50 (SW-620 colon) was 1790 nM, the TGI (SW-620 colon) was greater than 50000 nM and the GI50 (SK-OV-3 ovarian) was 1370 nM. The TGI (SK-OV-3 ovarian) was 4700 nM, the GI50 (RXF 393 renal) was 1250 nM and the TGI (RXF 393 renal) was 3870 nM. The GI50 (MDA-MB-435) was 1430 nM, the TGI (MDA-MB-435) was 6510 nM and the GI50 (HL-60(TB) leukemia) was 1110 nM. For the same molecule, the TGI (HL-60(TB) leukemia) was 2810 nM, the GI50 (IGROV1 ovarian) was 1810 nM and the TGI (IGROV1 ovarian) was greater than 50000 nM. It also gave a GI50 (M14 melanoma) of 1630 nM, a TGI (M14 melanoma) of 9820 nM and a GI50 (UACC-257 melanoma) of 781 nM. For the same molecule, the TGI (UACC-257 melanoma) was 3600 nM, the GI50 (A498 renal) was 636 nM and the TGI (A498 renal) was 2070 nM. For the same molecule, the GI50 (MALME-3M melanoma) was 1010 nM, the TGI (MALME-3M melanoma) was 3070 nM and the GI50 (K-562 leukemia) was 1370 nM. The TGI (K-562 leukemia) was greater than 50000 nM, the GI50 (MCF7 breast) was 1180 nM and the TGI (MCF7 breast) was greater than 50000 nM. It also gave a GI50 (MOLT-4 leukemia) of 1540 nM, a TGI (MOLT-4 leukemia) of 5860 nM and a GI50 (EKVX NSCLC) of 1380 nM. For the same molecule, the TGI (EKVX NSCLC) was 15700 nM, the GI50 (CCRF-CEM leukemia) was 1620 nM and the TGI (CCRF-CEM leukemia) was greater than 50000 nM. It also gave a GI50 (NCI-H460 lung) of 1460 nM, a TGI (NCI-H460 lung) greater than 50000 nM and a GI50 (HOP-62 NSCLC) of 1590 nM. The TGI (HOP-62 NSCLC) was 6150 nM, the GI50 (DU-145 prostate) was 1850 nM and the TGI (DU-145 prostate) was greater than 50000 nM. The GI50 (A549 NSCLC) was 1570 nM, the TGI (A549 NSCLC) was greater than 50000 nM and the GI50 (PC-3 prostate) was 1490 nM. For the same molecule, the TGI (PC-3 prostate) was greater than 50000 nM, the GI50 (OVCAR-5 ovarian) was 1550 nM and the TGI (OVCAR-5 ovarian) was greater than 50000 nM. The GI50 (COLO 205 colon) was 10600 nM, the TGI (COLO 205 colon) was 30500 nM and the GI50 (BT-549 breast) was 1060 nM. For the same molecule, the TGI (BT-549 breast) was 7180 nM, the GI50 (SF-295 CNS) was 1200 nM and the TGI (SF-295 CNS) was 3580 nM. It also gave a GI50 (SK-MEL-28 melanoma) of 1410 nM, a TGI (SK-MEL-28 melanoma) of 19100 nM and a GI50 (786-0 renal) of 1120 nM. The TGI (786-0 renal) was 2900 nM, the GI50 (HT29 colon) was 13800 nM and the TGI (HT29 colon) was greater than 50000 nM. For the same molecule, the GI50 (HCT-15 colon) was 1430 nM, the TGI (HCT-15 colon) was 6230 nM and the GI50 (NCI-H23 lung) was 1070 nM. The TGI (NCI-H23 lung) was 3230 nM, the GI50 (SK-MEL-5 melanoma) was 694 nM and the TGI (SK-MEL-5 melanoma) was 1670 nM. The GI50 (SNB-19 CNS) was 1650 nM, the TGI (SNB-19 CNS) was greater than 50000 nM and the GI50 (NCI-H522 lung) was 923 nM. It also gave a TGI (NCI-H522 lung) greater than 50000 nM, a GI50 (SK-MEL-2 melanoma) of 979 nM and a TGI (SK-MEL-2 melanoma) of 2860 nM. The GI50 (HCT-116 colon) was 1120 nM, the TGI (HCT-116 colon) was 5940 nM and the GI50 (U251 CNS) was 1480 nM. For the same molecule, the TGI (U251 CNS) was greater than 50000 nM, the GI50 (SF-268 CNS) was 1580 nM and the TGI (SF-268 CNS) was greater than 50000 nM. For the same molecule, the GI50 (HS 578T breast) was 1610 nM, the TGI (HS 578T breast) was greater than 50000 nM and the GI50 (SR leukemia) was 1920 nM. The TGI (SR leukemia) was greater than 50000 nM, the GI50 (UACC-62 melanoma) was 628 nM and the TGI (UACC-62 melanoma) was 2410 nM. For the same molecule, the GI50 (OVCAR-4 ovarian) was 1370 nM, the TGI (OVCAR-4 ovarian) was greater than 50000 nM and the GI50 (TK-10 renal) was 1700 nM. For the same molecule, the TGI (TK-10 renal) was greater than 50000 nM, the GI50 (SNB-75 CNS) was 906 nM and the TGI (SNB-75 CNS) was 2720 nM. The GI50 (HCC-2998 colon) was 1490 nM and the TGI (HCC-2998 colon) was greater than 50000 nM.

`C=C(C)[C@@H]1CC[C@]2(COP(=O)(OCC)OCC)CC[C@]3(C)[C@H](CC[C@@H]4[C@@]5(C)CCCNC(C)(C)[C@@H]5CC[C@]43C)[C@@H]12` gave a GI50 (SN12C renal) of 1570 nM, a TGI (SN12C renal) of 3150 nM and a GI50 (OVCAR-3 ovarian) of 1670 nM. For the same molecule, the TGI (OVCAR-3 ovarian) was 3380 nM, the GI50 (ACHN renal) was 1730 nM and the TGI (ACHN renal) was 3140 nM. The GI50 (HOP-92 NSCLC) was 1230 nM, the TGI (HOP-92 NSCLC) was 2570 nM and the GI50 (UO-31 renal) was 1440 nM. The TGI (UO-31 renal) was 2810 nM, the GI50 (CAKI-1 renal) was 1500 nM and the TGI (CAKI-1 renal) was 2990 nM. The GI50 (MDA-MB-231 breast) was 1750 nM, the TGI (MDA-MB-231 breast) was 3330 nM and the GI50 (NCI/ADR-RES ovarian) was 1660 nM. The TGI (NCI/ADR-RES ovarian) was 3260 nM, the GI50 (SF-539 CNS) was 1730 nM and the TGI (SF-539 CNS) was 3240 nM. The GI50 (SK-OV-3 ovarian) was 1690 nM, the TGI (SK-OV-3 ovarian) was 3250 nM and the GI50 (RXF 393 renal) was 1550 nM. For the same molecule, the TGI (RXF 393 renal) was 2910 nM, the GI50 (MDA-MB-435) was 1730 nM and the TGI (MDA-MB-435) was 3180 nM. It also gave a GI50 (IGROV1 ovarian) of 1610 nM, a TGI (IGROV1 ovarian) of 3180 nM and a GI50 (MALME-3M melanoma) of 1680 nM. It also gave a TGI (MALME-3M melanoma) of 3370 nM, a GI50 (K-562 leukemia) of 1660 nM and a TGI (K-562 leukemia) of 7000 nM. It also gave a GI50 (MCF7 breast) of 1330 nM, a TGI (MCF7 breast) of 2970 nM and a GI50 (MOLT-4 leukemia) of 1850 nM. The TGI (MOLT-4 leukemia) was 4720 nM, the GI50 (EKVX NSCLC) was 1460 nM and the TGI (EKVX NSCLC) was 2880 nM. The GI50 (CCRF-CEM leukemia) was 1710 nM, the TGI (CCRF-CEM leukemia) was 3850 nM and the GI50 (NCI-H460 lung) was 1790 nM. For the same molecule, the TGI (NCI-H460 lung) was 4620 nM, the GI50 (DU-145 prostate) was 1790 nM and the TGI (DU-145 prostate) was 3390 nM. The GI50 (PC-3 prostate) was 1590 nM, the TGI (PC-3 prostate) was 2980 nM and the GI50 (OVCAR-5 ovarian) was 1720 nM. It also gave a TGI (OVCAR-5 ovarian) of 3140 nM, a GI50 (BT-549 breast) of 1680 nM and a TGI (BT-549 breast) of 3090 nM. The GI50 (SF-295 CNS) was 1680 nM, the TGI (SF-295 CNS) was 3150 nM and the GI50 (SK-MEL-28 melanoma) was 1750 nM. The TGI (SK-MEL-28 melanoma) was 3180 nM, the GI50 (786-0 renal) was 1710 nM and the TGI (786-0 renal) was 3210 nM. For the same molecule, the GI50 (HCT-15 colon) was 1560 nM, the TGI (HCT-15 colon) was 3050 nM and the GI50 (SNB-19 CNS) was 1710 nM. It also gave a TGI (SNB-19 CNS) of 3170 nM, a GI50 (SR leukemia) of 1410 nM and a TGI (SR leukemia) of 4090 nM. It also gave a GI50 (UACC-62 melanoma) of 1700 nM, a TGI (UACC-62 melanoma) of 3200 nM and a GI50 (OVCAR-4 ovarian) of 1540 nM. It also gave a TGI (OVCAR-4 ovarian) of 3130 nM, a GI50 (TK-10 renal) of 1860 nM and a TGI (TK-10 renal) of 3580 nM. The GI50 (SNB-75 CNS) was 1220 nM, the TGI (SNB-75 CNS) was 2850 nM and the GI50 (HCC-2998 colon) was 1720 nM. For the same molecule, the TGI (HCC-2998 colon) was 3220 nM.
